The record followed here is US11732277B2, “Cellular production of pure iron oxide nanoparticles” (NANOBACTERIE, priority 2018, dated 2023).

In experiment [1] the test system is MSR-1 magnetotactic bacteria. It counts as cell-based. As to conditions: for Growth ratio (ODD13/ODD6) / Optical density following pre-growth (ODD6) / Optical density following growth (ODD13): condition 4, individual vitamins; for Optical density following pre-growth (ODD6) / Optical density following growth (ODD13): OD at 565 nm; for Optical density following pre-growth (ODD6): day 6; for Optical density following growth (ODD13): day 13; for OD565 nmD13/OD565 nmD6: condition 4, individual vitamin replacing yeast extract, mineral elixir CB3, 50 mL tubes. The protocol:
Optical density measurements of suspensions of whole magnetotactic bacteria to assess bacterial growth: The optical density of the different suspensions of magnetotactic bacteria was measured at 565 nm, designated as OD565 nm, using a Secomam UviLine9400 spectrophotometer. The value of OD565 nm is proportional to the concentrations of bacteria in the suspensions. […]
This example describes the experimental protocol used to determine the reduced medium replacing the yeast extract that enables the growth of MSR-1 magnetotactic bacteria and the synthesis of magnetosomes by these bacteria. In this example we used non-pharmaceutical grade chemicals for the preparation of the growth media. The compositions of pre-growth and growth media, in one liter of de-ionized water, are indicated in table 2 (condition 2), table 3 (condition 3), and table 4 (condition 4). During the first day of the experiment (D1), a first step consists in collecting the tubes of 15 ml containing 5 mL of MSR-1 cellular stock tube from the freezer at −80° C., in thawing the tubes by letting them at room temperature for 10 minutes. In a hood, we collected from these tubes 100 μl comprising 5.10^6 MSR-1 magnetotactic bacteria that we have inserted in a 50 mL tube comprising 8 mL of filtered pre-growth medium of either condition 2 (table 2), condition 3 (table 3), or condition 4 (table 4). The 50 ml tubes were incubated for 6 days between D1 and D6 in an incubator at 29.5° C. under shaking conditions at 150 rpm. A second step consisted in adding an iron source to the growth media to enable the synthesis of magnetosomes by MSR-1 bacteria. After 6 days of pre-growth, at D6, the 50 ml tubes were placed in a hood. 30 ml of filtered growth medium were then added to the 50 mL tubes (condition 2, table 2, condition 3, table 3, condition 4, table 4) at D6 and the bacteria grew between D6 and D13. […] In contrast, the magnetic response is 0 for conditions Vit5X, Vit10X (condition 3) and very low for conditions CP, I, AA, P (condition 4). […]

Experiment [2] deals with MSR-1 magnetotactic bacteria. It counts as cell-based. As to conditions: for magnetic response: condition 4, individual vitamin replacing yeast extract, at D13; for Magnetic response (%): condition 4, individual vitamins, D13. The method, then: Measurement of the magnetic response of living magnetotactic bacteria using optical microscopic observations of these bacteria under the application of a magnetic field: 1 mL of a suspension of MSR-1 magnetotactic bacteria was centrifugated at 14500 rpm for 10 minutes. The growth medium was removed and replaced by a volume of PBS 0.1× to reach an OD565 nm of 0.5. 1 μL of this suspension of MSR-1 magnetotactic bacteria was deposited on a parallelipedic microscope slide (Menzel-Glaser, 24 mm×60 mm, […]) for microscopic observation using a Zeiss Primo Vert optical microscope with X40 magnification. Four small cubic Neodinium magnets of strength 1.3 T (Supermagnet, N42 W-10-N 10×10×10 mm) were positioned on the microscope's platform at a distance from the suspension of bacteria of ˜2 cm in such a way that it either generated a magnetic field parallel to the position of the observer or to the line between the two binoculars (position 1) or perpendicular to this position (position 2). 20 seconds after positioning the magnet in position 1 or 2, the percentage of bacteria aligned in the direction of the magnetic field was estimated, by considering 200 magnetotactic bacteria. The bacteria that were not aligned in the same direction as the magnetic field generated by the magnet were considered as non-magnetic. Their number is designated as nBNM. The bacteria that were aligned in the direction of the magnetic field generated by the magnet were considered as magnetic. Their number was designated as nBM. The percentage of magnetic bacteria was then given by nBM/(nBM+nBNM). A positive magnetic response of magnetotatic bacteria corresponded to nBM/(nBM+nBNM)>0.5. A negative magnetic response of magnetotatic bacteria corresponds to nBM/(nBM+nBNM)<0.5.
In some cases, the percentage of magnetic bacteria can be measured by optical observation under microscope in the presence of a magnetic field.

Like-named read-outs stand apart in the source and are kept apart here. Some results are limits rather than exact numbers.

For the compound Calcium pantothenate [CP], in experiment [1], the “Growth ratio (ODD13/ODD6)” value is recorded as 3.3, the “Optical density following pre-growth (ODD6)” value came out at 0.3 and the “Optical density following growth (ODD13)” value was 0.98. Moreover, in experiment [2], the magnetic response entry is reported as “very low” and the “Magnetic response (%)” value is listed as 5%.

With `Nc1ccc(C(=O)O)cc1` [AA, p-Aminobenzoic acid], in experiment [1], the “Growth ratio (ODD13/ODD6)” value is reported as 6.7, the “Optical density following pre-growth (ODD6)” value is 0.12 and the “Optical density following growth (ODD13)” value was found to be 0.8. In experiment [2], the magnetic response result is listed as “very low” and the “Magnetic response (%)” value came to 20%.

For the compound `O[C@H]1[C@H](O)[C@@H](O)[C@H](O)[C@@H](O)[C@H]1O` [I, Inositol], in experiment [1], the “Growth ratio (ODD13/ODD6)” value stood at 2.4, the “Optical density following pre-growth (ODD6)” value was 0.33 and the “Optical density following growth (ODD13)” value is 0.8. Moreover, in experiment [2], the magnetic response entry is recorded as “very low” and the “Magnetic response (%)” value came to 20%.

For `Cc1ncc(CO)c(CO)c1O.Cl` [P, Pyridoxine HCl], in experiment [1], the “Growth ratio (ODD13/ODD6)” value came out at 2.8, the “Optical density following pre-growth (ODD6)” value was determined as 0.25 and the “Optical density following growth (ODD13)” value is listed as 0.7. In experiment [2], the magnetic response result is “very low” and the “Magnetic response (%)” value is reported as 5%.

On to `Cc1cc2nc3c(=O)[nH]c(=O)nc-3n(C[C@H](O)[C@H](O)[C@H](O)CO)c2cc1C` [Riboflavin], for which, in experiment [1], the “OD565 nmD13/OD565 nmD6” value was determined as 4.8, the “Growth ratio (ODD13/ODD6)” value is recorded as 4.8, the “Optical density following pre-growth (ODD6)” value is listed as 0.19 and the “Optical density following growth (ODD13)” value was found to be 0.92. Further, in experiment [2], the magnetic response is 90% and the “Magnetic response (%)” value is over 90%.

`Nc1nc2ncc(CNc3ccc(C(=O)N[C@@H](CCC(=O)O)C(=O)O)cc3)nc2c(=O)[nH]1` [folic acid, Folic acid]: in experiment [1], the “OD565 nmD13/OD565 nmD6” value stood at 2.9, the “Growth ratio (ODD13/ODD6)” value is on record as 2.9, the “Optical density following pre-growth (ODD6)” value was determined as 0.4 and the “Optical density following growth (ODD13)” value came out at 1.14. In experiment [2], the magnetic response is reported as 90% and the “Magnetic response (%)” value amounted to 50%.

As for `O=C(O)c1cccnc1` [nicotinic acid, Nicotinic acid], in experiment [1], the “OD565 nmD13/OD565 nmD6” value is 2.4, the “Growth ratio (ODD13/ODD6)” value was found to be 2.4, the “Optical density following pre-growth (ODD6)” value was 0.27 and the “Optical density following growth (ODD13)” value is 0.65. Besides, in experiment [2], the magnetic response is 90% and the “Magnetic response (%)” value was over 90%.

As for `O=C(O)CCCC[C@@H]1SC[C@@H]2NC(=O)N[C@@H]21` [Biotin], in experiment [2], the magnetic response turned out to be 90% and the “Magnetic response (%)” value is listed as over 90%.

As for Thiamine HCl, the “OD565 nmD13/OD565 nmD6” value in experiment [1] (listed as thiamin HCl, HCl) amounted to 5.8. Also, in experiment [1], the “Growth ratio (ODD13/ODD6)” value came out at 5.8, the “Optical density following pre-growth (ODD6)” value is on record as 0.26 and the “Optical density following growth (ODD13)” value is recorded as 1.51. In addition, in experiment [2] (listed as thiamin HCl, HCl), the magnetic response came out at 90%. Besides, the “Magnetic response (%)” value in experiment [2] is reported as over 90%.
